Reference: patent US20250282768A1 (Janssen Pharmaceutica NV, priority 2022, published 2025)

tested on: p-IKKa levels in L363 (NIK translocated multiple myeloma) cells; assay: Assay 2: Effect of compounds on p-IKKa levels in L363 (NIK translocated multiple myeloma) cells; assay type: cell-based; conditions: Homo sapiens, L-363, 6 h, read-out: Assay 2 IC50 (nM), p-IKKa (Ser 176/180) in BAFF stimulated L363 cells with MG132, 6 h; average if tested more than once
Procedure, shortened: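 Read-out is p-IKKa Ser176/180 by AlphaLISA SureFire in lysates. Cells were BAFF-primed (250 ng/ml) overnight or left unstimulated, then exposed 6 h at 37 °C to compound with MG132 (10 μM), 0.3% DMSO. IC50 from sigmoidal curve fit, normalized between stimulated and unstimulated controls.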

| Structure (SMILES) | IC50 [nM] |
| --- | --- |
| COc1cn([C@H]2C[C@@H](O)C2)nc1Nc1nccc(-c2cccc(-c3cc([C@]4(O)CCN(C)C4=O)on3)n2)n1 [Example 230, (R)-3-Hydroxy-3-(3-(6-(2-((1-((1s,3s)-3-hydroxycyclobutyl)-4-methoxy-1H-pyrazol-3-yl)amino)pyrimidin-4-yl)pyridin-2-yl)isoxazol-5-yl)-1-methylpyrrolidin-2-one] | < 50 |
| COc1cn([C@H]2C[C@H](O)C2)nc1Nc1nccc(-c2cccc(-c3cc([C@]4(O)CCN(C)C4=O)on3)n2)n1 [Example 231, (R)-3-Hydroxy-3-(3-(6-(2-((1-((1r,3r)-3-hydroxycyclobutyl)-4-methoxy-1H-pyrazol-3-yl)amino)pyrimidin-4-yl)pyridin-2-yl)isoxazol-5-yl)-1-methylpyrrolidin-2-one] | < 50 |
| CN1CC[C@@](O)(c2cc(-c3cccc(-c4ccnc(Nc5cn(C)nc5OCCO)n4)n3)no2)C1=O [Example 232, (R)-3-Hydroxy-3-(3-(6-(2-((3-(2-hydroxyethoxy)-1-methyl-1H-pyrazol-4-yl)amino)pyrimidin-4-yl)pyridin-2-yl)isoxazol-5-yl)-1-methylpyrrolidin-2-one] | 50 to 500 |
| Cc1nn(C2CCOCC2)cc1Nc1nccc(-c2cccc(-c3cc([C@]4(O)CCN(C)C4=O)on3)n2)n1 [Example 233, (R)-3-Hydroxy-1-methyl-3-(3-(6-(2-((3-methyl-1-(tetrahydro-2H-pyran-4-yl)-1H-pyrazol-4-yl)amino)pyrimidin-4-yl)pyridin-2-yl)isoxazol-5-yl)pyrrolidin-2-one] | < 50 |
| Cc1nn(CC(C)(C)O)cc1Nc1nccc(-c2cccc(-c3cc([C@]4(O)CCN(C)C4=O)on3)n2)n1 [Example 234, (R)-3-Hydroxy-3-(3-(6-(2-((1-(2-hydroxy-2-methylpropyl)-3-methyl-1H-pyrazol-4-yl)amino)pyrimidin-4-yl)pyridin-2-yl)isoxazol-5-yl)-1-methylpyrrolidin-2-one] | < 50 |
| Cc1nn(CC(C)(C)O)cc1Nc1nccc(-c2cccc(-c3cc([C@@]4(O)C(=O)N(C)CC4(F)F)on3)n2)n1 [Example 235, (R)-4,4-Difluoro-3-hydroxy-3-(3-(6-(2-((1-(2-hydroxy-2-methylpropyl)-3-methyl-1H-pyrazol-4-yl)amino)pyrimidin-4-yl)pyridin-2-yl)isoxazol-5-yl)-1-methylpyrrolidin-2-one] | < 50 |
| Cc1noc(C)c1Nc1nccc(-c2cccc(-c3cc([C@]4(O)CCN(C)C4=O)on3)n2)n1 [Example 236, (R)-3-(3-(6-(2-((3,5-Dimethylisoxazol-4-yl)amino)pyrimidin-4-yl)pyridin-2-yl)isoxazol-5-yl)-3-hydroxy-1-methylpyrrolidin-2-one] | 50 to 500 |
| CCn1ccc(Nc2nccc(-c3cccc(-c4cc([C@]5(O)CCN(C)C5=O)no4)n3)n2)n1 [Example 237, (R)-3-(5-(6-(2-((1-Ethyl-1H-pyrazol-3-yl)amino)pyrimidin-4-yl)pyridin-2-yl)isoxazol-3-yl)-3-hydroxy-1-methylpyrrolidin-2-one] | < 50 |
| Cc1c(Nc2nccc(-c3cccc(-c4cc([C@]5(O)CCN(C)C5=O)no4)n3)n2)cnn1C [Example 238, (R)-3-(5-(6-(2-((1,5-Dimethyl-1H-pyrazol-4-yl)amino)pyrimidin-4-yl)pyridin-2-yl)isoxazol-3-yl)-3-hydroxy-1-methylpyrrolidin-2-one] | < 50 |
| CN1CC(F)(F)[C@@](O)(c2cc(-c3cccc(-c4ccnc(Nc5cnn6c5CCCC6)n4)n3)no2)C1=O [Example 239, (R)-4,4-Difluoro-3-hydroxy-1-methyl-3-(3-(6-(2-((4,5,6,7-tetrahydropyrazolo[1,5-a]pyridin-3-yl)amino)pyrimidin-4-yl)pyridin-2-yl)isoxazol-5-yl)pyrrolidin-2-one] | 50 to 500 |
| CN1C(=O)[C@](O)(c2cc(-c3cccc(-c4ccnc(Nc5cnn(C)c5)n4)n3)no2)[C@H]2C[C@H]21 [Example 240, (1R,4R,5S)-4-Hydroxy-2-methyl-4-(3-(6-(2-((1-methyl-1H-pyrazol-4-yl)amino)pyrimidin-4-yl)pyridin-2-yl)isoxazol-5-yl)-2-azabicyclo[3.1.0]hexan-3-one] | 50 to 500 |
| Cc1c(Nc2nccc(-c3cccc(-c4cc([C@@]5(O)C(=O)N(C)[C@@H]6C[C@@H]65)on4)n3)n2)cnn1C [Example 241, (1R,4R,5S)-4-(3-(6-(2-((1,5-Dimethyl-1H-pyrazol-4-yl)amino)pyrimidin-4-yl)pyridin-2-yl)isoxazol-5-yl)-4-hydroxy-2-methyl-2-azabicyclo[3.1.0]hexan-3-one] | 50 to 500 |
| Cc1c(Nc2nccc(-c3cccc(-c4cc([C@@]5(O)C(=O)N(C)CC5(F)F)on4)n3)n2)cnn1CC(C)(C)O [Example 242, (R)-4,4-Difluoro-3-hydroxy-3-(3-(6-(2-((1-(2-hydroxy-2-methylpropyl)-5-methyl-1H-pyrazol-4-yl)amino)pyrimidin-4-yl)pyridin-2-yl)isoxazol-5-yl)-1-methylpyrrolidin-2-one] | 50 to 500 |
| CN1CC(F)(F)[C@@](O)(c2cc(-c3cccc(-c4ccnc(Nc5cnn6c5CCC6)n4)n3)no2)C1=O [Example 243, (R)-3-(3-(6-(2-((5,6-Dihydro-4H-pyrrolo[1,2-b]pyrazol-3-yl)amino)pyrimidin-4-yl)pyridin-2-yl)isoxazol-5-yl)-4,4-difluoro-3-hydroxy-1-methylpyrrolidin-2-one] | < 50 |
| Cc1cccc(Nc2nccc(-c3cccc(-c4cc([C@]5(O)CCN(C)C5=O)on4)n3)n2)n1 [Example 244, (R)-3-Hydroxy-1-methyl-3-(3-(6-(2-((6-methylpyridin-2-yl)amino)pyrimidin-4-yl)pyridin-2-yl)isoxazol-5-yl)pyrrolidin-2-one] | 50 to 500 |
| Cc1cncc(Nc2nccc(-c3cccc(-c4cc([C@]5(O)CCN(C)C5=O)on4)n3)n2)c1 [Example 245, (R)-3-Hydroxy-1-methyl-3-(3-(6-(2-((5-methylpyridin-3-yl)amino)pyrimidin-4-yl)pyridin-2-yl)isoxazol-5-yl)pyrrolidin-2-one] | > 500 |
| Cc1cnccc1Nc1nccc(-c2cccc(-c3cc([C@]4(O)CCN(C)C4=O)on3)n2)n1 [Example 246, (R)-3-Hydroxy-1-methyl-3-(3-(6-(2-((3-methylpyridin-4-yl)amino)pyrimidin-4-yl)pyridin-2-yl)isoxazol-5-yl)pyrrolidin-2-one] | > 500 |
| CN1CC[C@@](O)(c2cc(-c3cccc(-c4ccnc(Nc5cccnc5)n4)n3)no2)C1=O [Example 247, (R)-3-Hydroxy-1-methyl-3-(3-(6-(2-(pyridin-3-ylamino)pyrimidin-4-yl)pyridin-2-yl)isoxazol-5-yl)pyrrolidin-2-one] | > 500 |
| CN1CC[C@@](O)(c2cc(-c3cccc(-c4ccnc(Nc5ccccn5)n4)n3)no2)C1=O [Example 248, (R)-3-Hydroxy-1-methyl-3-(3-(6-(2-(pyridin-2-ylamino)pyrimidin-4-yl)pyridin-2-yl)isoxazol-5-yl)pyrrolidin-2-one] | 50 to 500 |
| CN1CC[C@@](O)(c2cc(-c3cccc(-c4ccnc(Nc5ccncc5)n4)n3)no2)C1=O [Example 249, (R)-3-Hydroxy-1-methyl-3-(3-(6-(2-(pyridin-4-ylamino)pyrimidin-4-yl)pyridin-2-yl)isoxazol-5-yl)pyrrolidin-2-one] | < 50 |
| CCn1cc(Nc2nccc(-c3cccc(-c4cc([C@]5(O)CCN(C)C5=O)on4)n3)n2)c(C)n1 [Example 250, (R)-3-(3-(6-(2-((1-Ethyl-3-methyl-1H-pyrazol-4-yl)amino)pyrimidin-4-yl)pyridin-2-yl)isoxazol-5-yl)-3-hydroxy-1-methylpyrrolidin-2-one] | < 50 |
| CN1CC[C@@](O)(c2cn(-c3cccc(-c4ccnc(Nc5cnn6c5CCCC6)n4)n3)nn2)C1=O [Example 251, (R)-3-Hydroxy-1-methyl-3-(1-(6-(2-((4,5,6,7-tetrahydropyrazolo[1,5-a]pyridin-3-yl)amino)pyrimidin-4-yl)pyridin-2-yl)-1H-1,2,3-triazol-4-yl)pyrrolidin-2-one] | < 50 |
| Cc1nn(C2CCN(C)CC2)cc1Nc1nccc(-c2cccc(-c3cc([C@]4(O)CCN(C)C4=O)on3)n2)n1 [Example 252] | 50 to 500 |
| CCn1ccc(Nc2nccc(-c3cccc(-n4cc([C@]5(O)CCN(C)C5=O)nn4)n3)n2)n1 [Example 253, (3R)-3-[1-[6-[2-[(1-Ethylpyrazol-3-yl)amino]pyrimidin-4-yl]-2-pyridyl]triazol-4-yl]-3-hydroxy-1-methyl-pyrrolidin-2-one] | < 50 |
| CN1CC[C@@](O)(c2cc(-c3cccc(-c4ccnc(Nc5ccc(F)cn5)n4)n3)no2)C1=O [Example 254, (R)-3-(3-(6-(2-((5-Fluoropyridin-2-yl)amino)pyrimidin-4-yl)pyridin-2-yl)isoxazol-5-yl)-3-hydroxy-1-methylpyrrolidin-2-one] | 50 to 500 |
| COc1ccc(Nc2nccc(-c3cccc(-c4cc([C@]5(O)CCN(C)C5=O)on4)n3)n2)nn1 [Example 255, (R)-3-Hydroxy-3-(3-(6-(2-((6-methoxypyridazin-3-yl)amino)pyrimidin-4-yl)pyridin-2-yl)isoxazol-5-yl)-1-methylpyrrolidin-2-one] | 50 to 500 |
| Cc1ccc(Nc2nccc(-c3cccc(-c4cc([C@]5(O)CCN(C)C5=O)on4)n3)n2)nn1 [Example 256, (R)-3-Hydroxy-1-methyl-3-(3-(6-(2-((6-methylpyridazin-3-yl)amino)pyrimidin-4-yl)pyridin-2-yl)isoxazol-5-yl)pyrrolidin-2-one] | 50 to 500 |
| CN1CC[C@@](O)(c2cc(-c3cccc(-c4ccnc(Nc5ccnc6c5CCO6)n4)n3)no2)C1=O [Example 257, (R)-3-(3-(6-(2-((2,3-Dihydrofuro[2,3-b]pyridin-4-yl)amino)pyrimidin-4-yl)pyridin-2-yl)isoxazol-5-yl)-3-hydroxy-1-methylpyrrolidin-2-one] | < 50 |
